Values of other authors in patent publication US6849271B2, “Microcapsule matrix microspheres, absorption-enhancing pharmaceutical compositions and methods” (Verion, Inc., priority 2001, dated 2005).

Settings: published by the FDA

SMILES	permeability class
CC1(C)S[C@@H]2[C@H](NC(=O)[C@H](N)c3ccc(O)cc3)C(=O)N2[C@H]1C(=O)O [Amoxicillin]	Low
C[C@](N)(Cc1ccc(O)c(O)c1)C(=O)O [L-Methyldopa]	Low
OC[C@@H](O)[C@@H](O)[C@H](O)[C@H](O)CO [Mannitol]	Low
CNC(=C[N+](=O)[O-])NCCSCc1ccc(CN(C)C)o1 [Ranitidine]	Low
